# Data from the supplement of paper PMC10307832.
# Assays:
# Assay in all cases: relative viability (nuclei count vs DMSO), 5 days (fraction); higher = more cells survive
# Palbociclib + Pemetrexed = compound: CC(=O)c1c(C)c2cnc(Nc3ccc(N4CCNCC4)cn3)nc2n(C2CCCC2)c1=O [Palbociclib] + Nc1nc2[nH]cc(CCc3ccc(C(=O)N[C@@H](CCC(=O)O)C(=O)O)cc3)c2c(=O)[nH]1 [Pemetrexed] (partner 0.2 µM)
# Method in brief: (§1)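 Medians of duplicate plates are given as relative viability. That measure is the nuclei count in treated wells divided by the count in vehicle wells. Counts were taken on 4× images of lung cancer cell lines in 1536-well plates, 5 days after pin-tool dosing the day after seeding with one drug alone or a fixed anchor-drug dose plus five library-drug doses (not always all listed) in √10 steps.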
# Palbociclib + Bortezomib = compound: CC(=O)c1c(C)c2cnc(Nc3ccc(N4CCNCC4)cn3)nc2n(C2CCCC2)c1=O [Palbociclib] + CC(C)C[C@H](NC(=O)[C@H](Cc1ccccc1)NC(=O)c1cnccn1)B(O)O [Bortezomib] (partner 0.002 µM)
# Method in brief: as §1
# Palbociclib + Pictilisib = compound: CC(=O)c1c(C)c2cnc(Nc3ccc(N4CCNCC4)cn3)nc2n(C2CCCC2)c1=O [Palbociclib] + CS(=O)(=O)N1CCN(Cc2cc3nc(-c4cccc5[nH]ncc45)nc(N4CCOCC4)c3s2)CC1 [Pictilisib] (partner 1 µM)
# Method in brief: as §1
# Palbociclib + Lapatinib = compound: CC(=O)c1c(C)c2cnc(Nc3ccc(N4CCNCC4)cn3)nc2n(C2CCCC2)c1=O [Palbociclib] + CS(=O)(=O)CCNCc1ccc(-c2ccc3ncnc(Nc4ccc(OCc5cccc(F)c5)c(Cl)c4)c3c2)o1 [Lapatinib] (partner 2 µM)
# Method in brief: as §1
Cell Line,relative viability (Palbociclib + Pemetrexed; first compound 0.01 µM),relative viability (Palbociclib + Pemetrexed; first compound 0.03162 µM),relative viability (Palbociclib + Pemetrexed; first compound 0.1 µM),relative viability (Palbociclib + Pemetrexed; first compound 0.3162 µM),relative viability (Palbociclib + Pemetrexed; first compound 1 µM),relative viability (Palbociclib + Bortezomib; first compound 0.01 µM),relative viability (Palbociclib + Bortezomib; first compound 0.03162 µM),relative viability (Palbociclib + Bortezomib; first compound 0.1 µM),relative viability (Palbociclib + Bortezomib; first compound 0.3162 µM),relative viability (Palbociclib + Bortezomib; first compound 1 µM),relative viability (Palbociclib + Pictilisib; first compound 0.01 µM),relative viability (Palbociclib + Pictilisib; first compound 0.03162 µM),relative viability (Palbociclib + Pictilisib; first compound 0.1 µM),relative viability (Palbociclib + Pictilisib; first compound 0.3162 µM),relative viability (Palbociclib + Pictilisib; first compound 1 µM),relative viability (Palbociclib + Lapatinib; first compound 0.01 µM),relative viability (Palbociclib + Lapatinib; first compound 0.03162 µM),relative viability (Palbociclib + Lapatinib; first compound 0.1 µM),relative viability (Palbociclib + Lapatinib; first compound 0.3162 µM),relative viability (Palbociclib + Lapatinib; first compound 1 µM)
HCC-78,0.894,0.88,0.935,0.942,0.943,0.385,0.451,0.366,0.454,0.406,0.206,0.202,0.19,0.251,0.154,0.914,0.313,0.513,0.685,0.198
LU99A,0.176,–,0.158,0.171,0.19,0.976,0.935,1,1.09,0.67,0.328,0.287,0.239,0.236,0.225,0.936,0.539,0.922,0.853,0.577
NCI-H2009,1.04,0.925,0.913,0.72,0.408,0.987,0.867,0.68,0.679,0.219,0.758,0.453,0.462,0.411,0.182,0.859,0.391,0.697,0.63,0.369
NCI-H2405,1.06,1.14,0.941,0.799,0.523,0.973,0.769,0.847,1.01,0.597,0.46,–,0.294,0.415,0.313,1.04,–,0.819,0.901,0.761
201T,0.343,0.342,0.358,0.372,0.283,1.16,0.954,1.04,0.946,0.709,0.68,0.61,0.622,0.525,0.464,1.06,0.844,0.928,0.94,0.692
PC-14,0.143,0.142,0.137,0.148,0.158,1.02,0.863,0.751,0.655,0.57,0.764,0.653,0.579,0.537,0.254,0.348,0.343,0.257,0.202,0.195
NCI-H322M,0.604,0.499,0.651,0.573,0.362,1.27,1.07,1.07,1.01,0.785,0.474,0.495,0.459,0.393,0.34,0.637,0.563,0.513,0.482,0.387
HOP-62,0.281,–,0.306,0.252,0.269,0.418,–,0.741,0.612,0.57,0.775,–,0.516,0.551,0.358,0.77,–,0.871,0.825,0.79
NCI-H1755,0.429,0.394,0.385,0.467,0.397,0.977,0.761,0.803,0.733,0.483,0.437,0.297,0.337,0.29,0.263,1.07,0.604,0.929,0.878,0.617
HCC-44,0.626,0.63,0.592,0.634,0.666,0.824,0.804,0.844,0.836,0.911,0.658,0.538,0.544,0.642,0.521,0.886,0.939,0.978,0.979,1.02
NCI-H2085,0.823,0.798,0.752,0.6,0.485,0.991,0.99,0.969,0.871,0.543,0.517,0.427,0.398,0.361,0.318,0.756,0.7,0.669,0.663,0.362
NCI-H647,0.167,0.171,0.2,0.179,0.188,0.963,0.814,0.696,0.851,0.472,0.423,–,0.275,0.307,0.278,1.26,0.956,0.778,0.923,0.525
LC-2-ad,0.271,0.289,0.318,0.392,0.363,1.03,–,0.779,0.704,0.469,0.45,–,0.346,0.305,0.223,0.947,–,0.736,0.705,0.491
HCC-827,0.228,0.251,0.257,0.261,0.243,1.09,0.804,0.954,0.948,0.857,0.859,1.02,0.986,0.951,0.746,0.217,0.19,0.161,0.202,0.182
HCC-15,0.217,–,0.246,0.247,0.227,1.1,–,0.929,0.833,0.737,0.71,–,0.617,0.591,0.603,0.934,–,0.75,0.796,0.642
NCI-H1734,0.423,0.466,0.404,0.407,0.4,0.896,0.532,0.661,0.619,0.409,0.39,0.387,0.331,0.344,0.235,1.01,0.575,0.867,0.789,0.531
NCI-H2347,0.39,0.407,0.368,0.413,0.386,1.01,–,0.929,–,0.684,0.538,0.772,0.584,0.47,0.492,0.957,0.823,0.71,0.682,0.751

Cell Line,relative viability (Palbociclib + Pemetrexed; first compound 0.01 µM),relative viability (Palbociclib + Pemetrexed; first compound 0.03162 µM),relative viability (Palbociclib + Pemetrexed; first compound 0.1 µM),relative viability (Palbociclib + Pemetrexed; first compound 0.3162 µM),relative viability (Palbociclib + Pemetrexed; first compound 1 µM),relative viability (Palbociclib + Bortezomib; first compound 0.01 µM),relative viability (Palbociclib + Bortezomib; first compound 0.03162 µM),relative viability (Palbociclib + Bortezomib; first compound 0.1 µM),relative viability (Palbociclib + Bortezomib; first compound 0.3162 µM),relative viability (Palbociclib + Bortezomib; first compound 1 µM),relative viability (Palbociclib + Pictilisib; first compound 0.01 µM),relative viability (Palbociclib + Pictilisib; first compound 0.03162 µM),relative viability (Palbociclib + Pictilisib; first compound 0.1 µM),relative viability (Palbociclib + Pictilisib; first compound 0.3162 µM),relative viability (Palbociclib + Pictilisib; first compound 1 µM),relative viability (Palbociclib + Lapatinib; first compound 0.01 µM),relative viability (Palbociclib + Lapatinib; first compound 0.03162 µM),relative viability (Palbociclib + Lapatinib; first compound 0.1 µM),relative viability (Palbociclib + Lapatinib; first compound 0.3162 µM),relative viability (Palbociclib + Lapatinib; first compound 1 µM)
NCI-H596,0.514,0.617,0.514,0.52,0.497,1.06,0.984,0.998,1.01,1.04,0.379,0.422,0.385,0.397,0.387,1.28,1.07,0.974,1.2,1.14
LXF-289,0.887,0.733,0.793,0.793,0.681,0.997,0.933,0.971,0.852,0.677,0.752,0.807,0.642,0.69,0.474,0.852,0.888,0.838,0.747,0.7
NCI-H1975,0.293,0.284,0.276,0.294,0.256,0.356,0.356,0.349,0.406,0.366,0.286,0.271,0.199,0.25,0.186,0.959,0.831,0.833,0.922,0.711
NCI-H1355,1.13,0.548,0.947,0.912,0.739,1.14,–,1.17,1.01,0.723,0.449,–,0.23,0.273,0.241,0.949,–,0.901,0.793,0.523
NCI-H1993,0.681,0.649,0.482,0.512,0.54,1.23,0.905,0.969,0.763,0.814,0.858,0.628,0.829,0.812,0.632,0.841,0.715,0.661,0.624,0.658
NCI-H2228,0.312,0.352,0.337,0.341,0.346,1.08,0.871,0.88,0.875,0.89,0.298,0.351,0.289,0.358,0.482,1.26,0.909,0.923,0.95,0.959
NCI-H1650,0.373,0.316,0.302,0.293,0.231,0.229,0.227,0.176,0.187,0.215,0.548,0.223,0.383,0.414,0.312,0.774,0.258,0.263,0.578,0.351
NCI-H650,0.946,–,0.7,0.725,0.483,0.912,–,0.61,0.637,0.377,1.02,–,0.364,0.659,0.489,1.3,–,0.657,0.818,0.434
BEN,0.894,0.596,0.609,0.585,0.38,0.94,0.728,0.849,0.674,0.353,0.612,0.425,0.402,0.411,0.3,0.754,0.582,0.518,0.558,0.342
NCI-H1915,0.494,–,0.446,0.413,0.331,1.02,0.684,0.921,0.947,0.778,0.875,0.504,0.846,0.808,0.621,0.972,0.379,1.04,0.942,0.808
NCI-H520,0.636,0.573,0.554,0.331,0.267,0.496,0.496,0.35,0.403,0.236,0.283,0.201,0.229,0.213,0.229,0.92,0.556,0.695,0.572,0.243
COR-L23,0.183,0.202,0.201,0.191,0.203,0.952,0.795,0.831,0.721,0.344,0.772,0.655,0.503,0.463,0.328,1.02,0.864,0.777,0.667,0.418
NCI-H2126,0.725,0.581,0.509,0.51,0.345,1.1,0.91,0.925,0.801,0.599,0.502,0.475,0.444,0.402,0.328,0.819,0.581,0.728,0.618,0.452
NCI-H1651,0.572,0.563,0.562,0.511,0.394,1,0.9,0.981,0.915,0.8,0.573,0.524,0.499,0.529,0.355,0.613,0.739,0.735,0.699,0.468
NCI-H460,0.0576,0.0539,0.0631,0.0663,0.057,1.11,0.937,0.909,0.745,0.172,0.465,0.302,0.268,0.318,0.182,0.92,0.813,0.71,0.516,0.207
NCI-H3122,0.205,0.184,0.192,0.186,0.188,1.04,1.02,0.919,0.745,0.513,0.536,0.523,0.449,0.332,0.234,0.994,0.998,0.911,0.819,0.579
